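Dose response: 5 concentrations. Exposure: 48 h. Format: 96-well plates. Endpoint: linear interpolation; highest concentration if not reached. TGI is the concentration that stops growth completely.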
What was measured:
Experiment in all cases: NCI tumour cell line growth inhibition, 48 h
OVCAR-4 ovarian = system: OVCAR-4 ovarian
MDA-MB-435 = system: MDA-MB-435
COLO 205 colon = system: COLO 205 colon
TK-10 renal = system: TK-10 renal
MDA-MB-231 breast = system: MDA-MB-231 breast
PC-3 prostate = system: PC-3 prostate
LOX IMVI melanoma = system: LOX IMVI melanoma
HT29 colon = system: HT29 colon
UO-31 renal = system: UO-31 renal
HCT-116 colon = system: HCT-116 colon
NCI-H460 lung = system: NCI-H460 lung
SF-268 CNS = system: SF-268 CNS
ACHN renal = system: ACHN renal
786-0 renal = system: 786-0 renal
U251 CNS = system: U251 CNS
HOP-92 NSCLC = system: HOP-92 NSCLC
EKVX NSCLC = system: EKVX NSCLC
SF-295 CNS = system: SF-295 CNS
SF-539 CNS = system: SF-539 CNS
A498 renal = system: A498 renal

Structure (SMILES) | TGI (OVCAR-4 ovarian) [µM] | TGI (MDA-MB-435) [µM] | TGI (COLO 205 colon) [µM] | TGI (TK-10 renal) [µM] | TGI (MDA-MB-231 breast) [µM] | TGI (PC-3 prostate) [µM] | TGI (LOX IMVI melanoma) [µM] | TGI (HT29 colon) [µM] | TGI (UO-31 renal) [µM] | TGI (HCT-116 colon) [µM] | TGI (NCI-H460 lung) [µM] | TGI (SF-268 CNS) [µM] | TGI (ACHN renal) [µM] | TGI (786-0 renal) [µM] | TGI (U251 CNS) [µM] | TGI (HOP-92 NSCLC) [µM] | TGI (EKVX NSCLC) [µM] | TGI (SF-295 CNS) [µM] | TGI (SF-539 CNS) [µM] | TGI (A498 renal) [µM]
CO/N=C/c1c(-c2ccc(Cl)cc2)c(/C=N/OC)n2c1sc1ccccc12 | > 100 | > 100 | > 100 | > 100 | > 100 | > 100 | > 100 | > 100 | > 100 | > 100 | > 100 | > 100 | > 100 | > 100 | > 100 | > 100 | > 100 | > 100 |  | 
C[C@]12CCC(=O)C=C1CC[C@@H]1[C@@H]2CC[C@]2(C)C(=O)/C(=C\c3ccccc3)C[C@@H]12 | > 100 | > 100 | 55.9 | > 100 | > 100 | > 53.3 | > 51.5 | > 100 | > 70.6 | > 48.7 | > 66 |  | > 100 | > 66.8 | > 69.4 | > 86.8 | > 100 | > 80.3 | > 63.6 | 42.4
CC(=O)OCC(OC(C)=O)C(OC(C)=O)C(OC(C)=O)C(/C=N\Nc1nc2ccccc2c(=O)[nH]1)OC(C)=O (stereo not given) |  | > 100 | > 100 |  | > 100 | > 100 | > 100 | > 100 | > 100 | > 100 | > 100 | > 100 | > 100 | > 100 | > 100 | > 100 | > 100 | > 100 | > 100 | 
CC1(c2nc3cc(Cl)c(Cl)cc3[nH]2)CCC(C(=O)O)C(C)(C)O1 (stereo not given) | > 100 | > 100 | > 100 | > 100 | > 100 | > 100 | > 100 | > 100 | > 100 | > 100 |  | > 100 | > 100 | > 100 | > 100 | > 100 | > 100 | > 100 | > 100 | 
Cc1nn(C(=O)c2ccncc2)c2c1C(c1ccccc1O)SC(N)=N2 (stereo not given) | > 10 | > 10 | > 10 | > 10 | > 10 | > 10 | > 10 | > 10 |  | > 10 | > 10 | > 10 | > 10 | > 10 | > 10 | > 10 | > 10 | > 10 | > 10 | 
CC1OC2OC3C(OCC(O)C3O)OC(=O)[C@]34CCC(C)(C)CC3C3=CCC5[C@@]6(C)C[C@H](O)[C@H](OC7OC(CO)C(O)C(O)C7OC7OC(COC(=O)CC(C)(O)CC(=O)OC1C(O)C2O)C(O)C(O)C7O)[C@@](C)(CO)C6CC[C@@]5(C)[C@]3(C)CC4 (stereo not given in full) | 3.15 | 2.88 | 2.98 | 2.89 | 3.11 | 2.56 | 2.91 | 3.18 | 2.52 | 3.39 | 4.45 | 2.97 | 2.52 | 2.4 | 2.91 | 2.94 |  | 3.1 | 11.9 | 
O=C1c2ccc3ccccc3c2CCC1N1CCCCC1 (stereo not given) | 30.2 | 32.3 | 42.1 | 29.6 | 30.6 | 42.3 | 33.7 | 39 | 29.1 | 31.7 | 50.4 | 39.7 | 31.5 | 32.1 | 33.1 | 32.2 | 51.7 | 37.9 | 28.8 | 
Oc1ccc2c3c1OC1c4[nH]c5c(c4CC4(O)C(C2)N(CC2CC2)CC[C@]314)CC1(O)C2Cc3ccc(O)c4c3[C@@]1(CCN2CC1CC1)C5O4 (stereo not given in full) | 90.5 | 37.6 | 35.6 | 44.6 | 46.1 | > 100 | 83.2 | 38.3 | > 100 | 33 |  | 49.4 | > 100 | 46 | 34.6 | 85 | 99.3 | 40 |  | 32.4
CCOC(=O)c1nc2ccc(C(F)(F)F)cc2nc1Nc1ccc(OC)c(OC)c1 |  | > 100 | > 100 | > 100 | > 100 | > 100 | > 100 | > 100 | > 100 | > 100 | > 100 | > 100 | > 100 | > 100 |  | > 100 | > 100 | > 100 | > 100 | > 100
O=C1/C(=C/c2cccc([N+](=O)[O-])c2)N=C(c2ccccc2)N1c1ccc2c(c1)Sc1cc(N3C(=O)/C(=C/c4cccc([N+](=O)[O-])c4)N=C3c3ccccc3)ccc1N2 | 34.5 | 34.5 | > 100 | 39.4 | 89.8 | 52.8 | 74.1 | > 100 | > 100 | > 100 | > 100 | 40.5 | > 100 | 46.3 | 66.5 | 85.2 | 62.9 | 32.6 |  | 55.1
CCC(CCCCC1CC[C@H]2CC(=O)C[C@@H]12)OC (stereo not given in full) | > 100 | > 100 | > 100 | > 100 | > 100 | > 100 | > 100 | > 100 |  | > 100 | > 100 | > 100 | > 100 | > 100 | > 100 | > 100 | > 100 | > 100 | > 100 | > 100
O=C(CN1CCCC1)Nc1ccc2sc3ccccc3c(=O)c2n1 | > 100 | 35.3 | 44.8 | > 100 | > 100 | 57.4 | 37.3 | > 100 | 27.9 | 68.3 | > 100 | 85.9 | 31.7 | 48.1 | 46.3 | 74.6 | > 100 | 67.8 | 35.3 | 

Source: PubChem BioAssay (NCI)
